This is an account of results in US20240277873A1, “ULTRABRIGHT […] PROBES FOR DETECTION AND IMAGING” (Nanyang Technological University, priority 2021, published 2024).

For one data set, the target named is T1, NE (Homo sapiens, UniProt P08246).
T1 sequence (P08246 30-267): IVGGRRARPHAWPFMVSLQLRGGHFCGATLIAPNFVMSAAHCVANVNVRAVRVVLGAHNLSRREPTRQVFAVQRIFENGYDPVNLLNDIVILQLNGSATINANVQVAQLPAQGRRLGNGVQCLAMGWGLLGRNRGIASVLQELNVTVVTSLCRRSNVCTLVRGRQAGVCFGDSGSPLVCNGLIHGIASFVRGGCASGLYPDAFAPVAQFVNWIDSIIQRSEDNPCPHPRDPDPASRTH
The experiment in a line: Enzyme kinetics study of NE with BTPDNe (Michaelis-Menten, HPLC). It counts as biochemical. The following applies: NE 0.1 U/mL, BTPDNe 2-80 μM. As for the experimental part: To carry out the kinetic assay, various concentrations of BTPDNe (2, 5, 10, 20, 40 and 80 μM) were incubated with NE (0.1 U/mL) at 37° C. for 10 min in 50 mM Tris, 1 M NaCl, 0.05% (w/v) Brij-35, and at pH=7.5. After incubation, quantification analyses were determined by HPLC. The initial reaction velocity was calculated, plotted against the concentration of BTPDNe, and fitted to a Michaelis-Menten curve. Finally, the kinetic parameters were calculated by Michaelis Menten equation: […]
where v is initial velocity, and [S] is substrate concentration.

Data set [1] can be described thus: Blood test: chemiluminescence after incubation in healthy mouse blood. The following applies: 20 μM, 30 min, 100 μL blood. The protocol: BTPDNe (20 μM) and MPDNe (20 μM) were incubated for 30 min in healthy mouse blood (100 μL), respectively. Chemiluminescence intensities were measured by IVIS system bioluminescence with an acquisition time of 60 s.
The subject of another data set is 3T3 cells. The experiment in a line: Cytotoxicity assay (MTS), 3T3 cells. The data set is classed as cell-based, mouse. The following applies: 2.5 to 50 μM, 24 h. As for the experimental part:
Neutrophils and normal mouse embryonic fibroblasts (3T3) cells were seeded in 96-well plates which have 5×10^4 cells per well and incubated for 24 h. Then, BTPDNe at different concentrations (2.5, 5, 10, 20 and 50 μM) was added into the neutrophils and 3T3 cells, respectively. After 24 h incubation, MTS assay was added to the cell for 4 h incubation. After incubation, the absorbance of MTS at 490 nm was recorded by using a microplate reader (SpectraMax M, Switzerland). The assays were performed in five sets for each concentration.

In turn, `COC1(c2ccc(-c3nc4ccccc4s3)c(OCc3ccc(NC(=O)[C@@H](NC(=O)[C@@H]4CCCN4C(=O)[C@H](C)NC(=O)[C@H](C)NC(C)=O)C(C)C)cc3)c2)OOC12C1CC3CC(C1)CC2C3` (some centres unmarked) [BTPDNe] came in with an enzyme kinetic coefficient on NE of 22000 M⁻¹ s⁻¹. Further, on NE (37° C., 10 min, pH 7.5), the Kcat amounted to 1.15 s⁻¹ and the Km was determined as 52.2 µM. Further, the “chemiluminescence intensities after incubation with healthy mouse blood” value in data set [1] is listed as “Negligible”. Moreover, the “cytotoxicity (cell viability, MTS)” value in the data set on 3T3 cells is on record as “no cytotoxicity”.
